Results published in paper PMC12892976, “Alkylation-based optimization of antifungal FPPS inhibitors yields a potent, broad-spectrum lipophilic zoledronate derivative” (mBio, 2025).
In brackets after ≈: the same amount, converted by molar mass. Like-named read-outs stand apart in the source and are kept apart here.

What was measured:
[1] = system: Aspergillus fumigatus; experiment: checkerboard drug interaction (FICI, MICc);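 also: simplified diagonal checkerboard screen pairing antifungals with FPPS inhibitors against Aspergillus fumigatus, with FICI calculated under the Loewe additivity model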; assay type: cell-based; conditions: A. fumigatus, KET:INH combination
Experimental: (§1) Drug interactions between antifungals and FPPS inhibitors were investigated using a simplified checkerboard diagonal screening method ([45]). […] FICIs were determined according to the Loewe additivity model ([17]).

[2] = system: Aspergillus flavus; experiment: MIC/MFC broth microdilution (CLSI); conditions: ATCC204304
Experimental: (§2) Antifungal susceptibility was determined by broth microdilution according to the CLSI guidelines described in M27-Ed4 ([16]). […] MFC was determined by back-plating drug-treated cultures from MIC broths onto SDA plates. The MFC was defined as the lowest concentration from which no colonies could be cultured.

[3] = system: Candida albicans; experiment: checkerboard drug interaction (FICI, MICc);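 as to all read-outs here: antifungal plus FPPS inhibitor combinations on Candida albicans tested by a simplified diagonal checkerboard screen, with FICI calculated under the Loewe additivity model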; assay type: cell-based; conditions: C. albicans; for INH FD (MIC-MICc fold decrease): fold decrease of inhibitor MIC
Experimental: as §1

[4] = system: Saccharomyces cerevisiae; experiment: checkerboard drug interaction (FICI, MICc);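 as to all read-outs here: simplified diagonal checkerboard screen pairing antifungals with FPPS inhibitors, FICI calculated under the Loewe additivity model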; assay type: cell-based; set-up: INH MICc / INH MICc (ITR:INH) / INH MICc (KET:INH) / INH MICc (FLC:INH): unit not given beside the values; conditions: S. cerevisiae; for INH FD (MIC-MICc fold decrease): fold decrease of inhibitor MIC
[5] = system: eight fungal species; experiment: checkerboard interaction with azoles, summary across the eight species; assay type: cell-based; conditions: geometric mean MIC in combination with azoles
Description: Synergy between lipophilic FPPS inhibitors and azole antifungals was investigated by determining the fractional inhibitory concentration index (FICI) (Fig. 2; Table S1 Fig. S1) ([17]). […]. Derivatives PLA9 and 11, and PDA9, 11, and 12 antagonized azoles in C. albicans, C. neoformans, and C. deuterogattii, yet were largely synergistic in C. glabrata and S. cerevisiae. […].

[6] = system: Candida glabrata; experiment: checkerboard drug interaction (FICI, MICc);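 as to all read-outs here: simplified diagonal checkerboard screen pairing antifungals with FPPS inhibitors, FICI calculated under the Loewe additivity model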; assay type: cell-based; conditions: C. glabrata; for INH FD (MIC-MICc fold decrease): fold decrease of inhibitor MIC
Experimental: as §1

[7] = system: eight fungal species; experiment: MIC/MFC summary across the eight fungal species of Table 1; assay type: cell-based
Experimental: The antifungal activity of these compounds was evaluated according to CLSI guidelines ([16]).

[8] = system: Saccharomyces cerevisiae; experiment: MIC/MFC broth microdilution (CLSI); assay type: cell-based; conditions: Saccharomyces cerevisiae S288c
Experimental: as §2

[9] = system: Trichophyton rubrum; experiment: checkerboard drug interaction (FICI, MICc);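 also: simplified diagonal checkerboard screen pairing azole antifungals with FPPS inhibitors, FICI calculated under the Loewe additivity model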; assay type: cell-based; conditions: T. rubrum
Experimental: as §1

[10] = FLC:INH combination, MIC of the inhibitor in combination with FLC
[11] = FLC:INH combination, fold decrease of FLC MIC
[12] = ITR:INH combination, MIC of the inhibitor in combination with ITR
[13] = ITR:INH combination, fold decrease of ITR MIC
[14] = KET:INH combination, MIC of the inhibitor in combination with KET
[15] = KET:INH combination, fold decrease of KET MIC

CCCCCCCCCCN1CCC[C@H]1C(=O)N[C@@H](CC(=O)OC)C(=O)OC [dmPLA10]
INH MICc ([1]; MIC of the inhibitor in combination with KET): 32 | KET FD (MIC-MICc fold decrease) ([1]; fold decrease of KET MIC): 4 | INH FD (MIC-MICc fold decrease) ([1]; fold decrease of inhibitor MIC): -2 | MFC [2]: 64 µg/mL (≈ 161 µM) | MIC [2]: 64 µg/mL (≈ 161 µM) | FICI ([3]; FLC:INH combination): 1.5 | INH MICc [3, 10]: 8 | FLC FD (MIC-MICc fold decrease) [3, 11]: 1 | INH FD (MIC-MICc fold decrease) ([3]; FLC:INH combination): 2 | FICI ([3]; ITR:INH combination): 0.75 | INH MICc [3, 12]: 4 | ITR FD (MIC-MICc fold decrease) [3, 13]: 2 | INH FD (MIC-MICc fold decrease) ([3]; ITR:INH combination): 4 | FICI ([3]; KET:INH combination): 0.75 | INH MICc [3, 14]: 4 | KET FD (MIC-MICc fold decrease) [3, 15]: 2 | INH FD (MIC-MICc fold decrease) ([3]; KET:INH combination): 4 | FICI ([4]; FLC:INH combination): ≥4 | FLC MICc ([4]; FLC:INH combination, MIC of FLC in combination with the inhibitor): 8 | INH MICc [4, 10]: 16 | FLC FD (MIC-MICc fold decrease) [4, 11]: -2 | INH FD (MIC-MICc fold decrease) ([4]; FLC:INH combination): -2 | FICI ([4]; ITR:INH combination): 1.13 | ITR MICc ([4]; ITR:INH combination, MIC of ITR in combination with the inhibitor): 0.25 | INH MICc [4, 12]: 1 | ITR FD (MIC-MICc fold decrease) [4, 13]: 1 | INH FD (MIC-MICc fold decrease) ([4]; ITR:INH combination): 8 | FICI ([4]; KET:INH combination): 1.13 | KET MICc ([4]; KET:INH combination, MIC of KET in combination with the inhibitor): 2 | INH MICc [4, 14]: 1 | KET FD (MIC-MICc fold decrease) [4, 15]: 1 | INH FD (MIC-MICc fold decrease) ([4]; KET:INH combination): 8 | GM fungal MICc [5]: 8 | FICI ([6]; FLC:INH combination): ≥4 | INH MICc [6, 10]: 16 | FLC FD (MIC-MICc fold decrease) [6, 11]: 1 | INH FD (MIC-MICc fold decrease) ([6]; FLC:INH combination): 1 | FICI ([6]; ITR:INH combination): 1.5 | INH MICc [6, 12]: 4 | ITR FD (MIC-MICc fold decrease) [6, 13]: 2 | INH FD (MIC-MICc fold decrease) ([6]; ITR:INH combination): 4 | FICI ([6]; KET:INH combination): 3 | INH MICc [6, 14]: 8 | KET FD (MIC-MICc fold decrease) [6, 15]: 1 | INH FD (MIC-MICc fold decrease) ([6]; KET:INH combination): 2 | Geometric mean MFC ([7]; across eight species): 64.0 µg/mL | MFC ([7]; across eight species, read-out: Geometric mean MFC): 64 µg/mL (≈ 161 µM) | MIC ([7]; geometric mean across eight species, read-out: GM fungal MIC): 20.7 µg/mL (≈ 51.9 µM) | MIC ([7]; read-out: Geometric mean MIC): 20.7 µg/mL (≈ 51.9 µM) | MFC [8]: 16 µg/mL (≈ 40.1 µM) | MIC [8]: 8 µg/mL (≈ 20.1 µM) | FICI (FLC:INH) ([9]; Fractional Inhibitory Concentration Index, fluconazole + inhibitor): ≥4 | FICI (ITR:INH) ([9]; Fractional Inhibitory Concentration Index, itraconazole + inhibitor): 1.03 | FICI (KET:INH) ([9]; Fractional Inhibitory Concentration Index, ketoconazole + inhibitor): 1.06 | INH MICc (FLC:INH) ([9]; MIC of the inhibitor in combination with fluconazole): 64 | INH MICc (ITR:INH) ([9]; MIC of the inhibitor in combination with itraconazole): 8 | INH MICc (KET:INH) ([9]; MIC of the inhibitor in combination with ketoconazole): 8 | FLC FD (FLC:INH) ([9]; MIC-MICc fold decrease of fluconazole, negative = increase): 2 | ITR FD (ITR:INH) ([9]; MIC-MICc fold decrease of itraconazole, negative = increase): 32 | KET FD (KET:INH) ([9]; MIC-MICc fold decrease of ketoconazole, negative = increase): 16 | INH FD (FLC:INH) ([9]; MIC-MICc fold decrease of the inhibitor, with fluconazole): < -4 | INH FD (ITR:INH) ([9]; MIC-MICc fold decrease of the inhibitor, with itraconazole): 1 | INH FD (KET:INH) ([9]; MIC-MICc fold decrease of the inhibitor, with ketoconazole): 1
